Laboratory results as given in patent US4098995A, “Polygalactosido-sucrose Poly(H-)sulfate salts” (American Cyanamid Company, priority 1976, dated 1978).
Several values for one entry are separate records, joined by “and”; a condition that tells them apart may be missing. Identical values can stand only once. Counter-ions that a name gives are not always drawn.

Assays:
[1] = tested on: late components of human complement (C3-C9); assay: Test, Code 035 (C3-C9 inhibitor), lysis of EAC 142 by late complement components; type: cell-based; details: serial two-fold dilution assay; higher well number indicates higher activity
Text: (§1) An active inhibitor protects C2 from C1 and C4; (ii) Test, Code 035 (C3-C9 inhibitor) - This test determines the ability of the late components of human complement (C3-C9) to lyse EAC 142 in the presence of appropriate dilutions of the test compound. An active inhibitor protects EAC 142 from lysis by human C3-C9; (iii) Test, Code 036 (C-Shunt inhibitor) -- In this test human erythrocytes rendered fragile are lysed in autologous serum via the shunt pathway activated by cobra venom factor in the presence of appropriate dilutions of the test compound. Inhibition of the shunt pathway results in failure of lysis; (iv) Forssman Vasculitis Test -- Here, the well known complement dependent lesion, Forssman vasculitis, is produced in guinea pigs by intradermal injection of rabbit anti-Forssman antiserum. The lesion is measured in terms of diameter, edema and hemorrhage and the extent to which a combined index of these is inhibited by prior intraperitoneal injection of the test compound at 200 mg/kg is then reported, unless otherwise stated; (v) Forssman Shock Test -- Lethal shock is produced in guinea pigs by an i.v. injection of anti-Forssman antiserum and the harmonic mean death time of treated guinea pigs is compared with that of simultaneous controls; (vi) Complement Level Reduction Test -- In this test, the above dosed guinea pigs, or others, are bled for serum and the complement level is determined in undiluted serum by the capillary tube method of U.S. Pat. No. 3,876,376 and compared to undosed control guinea pigs; and (vii) Cap 50 Test -- Here, appropriate amounts of the test compound are added to a pool of guinea pig serum in vitro, after which the undiluted serum capillary tube assay referred to above is run. The concentration of compound inhibiting 50% is reported.
(§2) **Activity in wells, a serial dilution assay. Higher well numer indicates
(§3) higher activity. The serial dilutions are two-fold.

shunt pathway = assay: Test, Code 036 (C-Shunt inhibitor), lysis of fragile human erythrocytes via shunt pathway activated by cobra venom factor; type: cell-based; details: serial two-fold dilution assay, higher well number indicates higher activity
Text: as §1, §2, §3

activated human C1 = activated human C1 (Homo sapiens, UniProt P09871); assay: Test, Code 026 (C1 inhibitor); type: biochemical; details: serial two-fold dilution assay, higher well number indicates higher activity
Text: as §1, §2, §3

whole complement = assay: Complement Level Reduction Test in dosed guinea pigs (serum whole complement, capillary tube assay); type: in vivo, guinea pig; details: 200 mg/kg
[2] = literature; cited from earlier work
complement [3] = assay: Complement inhibiting activity, tests disclosed herein
complement [4] = details: literature; cited from earlier work

O=S(=O)(O)OC[C@H]1O[C@H](OC[C@H]2O[C@H](O[C@]3(COS(=O)(=O)O)O[C@H](COS(=O)(=O)O)[C@@H](OS(=O)(=O)O)[C@@H]3OS(=O)(=O)O)[C@H](OS(=O)(=O)O)[C@@H](OS(=O)(=O)O)[C@@H]2OS(=O)(=O)O)[C@H](OS(=O)(=O)O)[C@@H](OS(=O)(=O)O)[C@H]1OS(=O)(=O)O [Raffinose Poly(H-)sulfate Triethylamine Salt]
In Vitro Activity 035 [1]: N | In Vitro Activity 036 (shunt pathway): N | In Vitro Activity 026 (activity in wells) (activated human C1): 10 wells and 9 wells

O=S(=O)(O)OC[C@H]1O[C@H](OC[C@H]2O[C@H](O[C@]3(COS(=O)(=O)O)O[C@H](COS(=O)(=O)O)[C@@H](OS(=O)(=O)O)[C@@H]3OS(=O)(=O)O)[C@H](OS(=O)(=O)O)[C@@H](OS(=O)(=O)O)[C@@H]2OS(=O)(=O)O)[C@H](OS(=O)(=O)O)[C@@H](OS(=O)(=O)O)[C@H]1OS(=O)(=O)O [Raffinose Poly(H--)sulfate Sodium Salt, Raffinose Poly(H-)sulfate Sodium Salt]
In Vitro Activity 036 (shunt pathway; Sodium Salt): 1 wells | In Vitro Activity 026 (activity in wells) (activated human C1; Sodium Salt): 9 wells

O=S(=O)(O)OC[C@H]1O[C@H](OC[C@H]2O[C@H](OC[C@H]3O[C@H](O[C@]4(COS(=O)(=O)O)O[C@H](COS(=O)(=O)O)[C@@H](OS(=O)(=O)O)[C@@H]4OS(=O)(=O)O)[C@H](OS(=O)(=O)O)[C@@H](OS(=O)(=O)O)[C@@H]3OS(=O)(=O)O)[C@H](OS(=O)(=O)O)[C@@H](OS(=O)(=O)O)[C@H]2OS(=O)(=O)O)[C@H](OS(=O)(=O)O)[C@@H](OS(=O)(=O)O)[C@H]1OS(=O)(=O)O [Stachyose Poly(H--)sulfate Sodium Salt, Stachyose Poly(H-)sulfate Sodium Salt]
In Vivo Activity (Guinea Pig) Percent Inhibition (whole complement; intraperitoneal, Time (Hours) 30): -47% | In Vivo Activity (Guinea Pig) Percent Inhibition (whole complement; intraperitoneal, Time (Hours) 60): -56% | In Vivo Activity (Guinea Pig) Percent Inhibition (whole complement; intraperitoneal, Time (Hours) 120): -65% | In Vivo Activity (Guinea Pig) Percent Inhibition (whole complement; intravenous, Time (Hours) 2): -86% | In Vivo Activity (Guinea Pig) Percent Inhibition (whole complement; intravenous, Time (Hours) 30): -93% | In Vivo Activity (Guinea Pig) Percent Inhibition (whole complement; intravenous, Time (Hours) 120): -17% | In Vitro Activity 035 [1]: N | In Vitro Activity 036 (shunt pathway; Sodium Salt): 4 wells and 2 wells | In Vitro Activity 026 (activity in wells) (activated human C1; Sodium Salt): 13 wells and 11 wells

O=S(=O)(O)OC[C@H]1O[C@H](OC[C@H]2O[C@H](OC[C@H]3O[C@H](O[C@]4(COS(=O)(=O)O)O[C@H](COS(=O)(=O)O)[C@@H](OS(=O)(=O)O)[C@@H]4OS(=O)(=O)O)[C@H](OS(=O)(=O)O)[C@@H](OS(=O)(=O)O)[C@@H]3OS(=O)(=O)O)[C@H](OS(=O)(=O)O)[C@@H](OS(=O)(=O)O)[C@H]2OS(=O)(=O)O)[C@H](OS(=O)(=O)O)[C@@H](OS(=O)(=O)O)[C@H]1OS(=O)(=O)O [Stachyose Poly(H--)sulfate Triethylamine Salt] [Stachyose Poly(H-)sulfate Triethylamine Salt]
In Vitro Activity 035 [1]: N | In Vitro Activity 036 (shunt pathway): 2 wells | In Vitro Activity 026 (activity in wells) (activated human C1): 14 wells

O=S(=O)(O)OC[C@H]1O[C@H](OC[C@H]2O[C@H](OC[C@H]3O[C@H](O[C@]4(COS(=O)(=O)O)O[C@H](COS(=O)(=O)O)[C@@H](OS(=O)(=O)O)[C@@H]4OS(=O)(=O)O)[C@H](OS(=O)(=O)O)[C@@H](OS(=O)(=O)O)[C@@H]3OS(=O)(=O)O)[C@H](OS(=O)(=O)O)[C@@H](OS(=O)(=O)O)[C@H]2OS(=O)(=O)O)[C@H](OS(=O)(=O)O)[C@@H](OS(=O)(=O)O)[C@H]1OS(=O)(=O)O [Stachyose Poly(H--)sulfate Trimethylamine Salt] [Stachyose Poly(H-)sulfate Trimethylamine Salt]
In Vitro Activity 035 [1]: N | In Vitro Activity 026 (activity in wells) (activated human C1): 11 wells and 12 wells

NCCCCCC(=O)O [epsilon-aminocaproic acid]
treatment of hereditary angioneurotic edema [2]: used with success

NC[C@H]1CC[C@H](C(=O)O)CC1 [tranexamic acid]
treatment of hereditary angioneurotic edema [2]: used with success

Stachyose trisulfate
complement inhibiting activity (complement [3]): found lacking in complement inhibiting activity

heparin
complement inhibiting activity (reported) (complement [4]): reported as having complement inhibiting activity

pentosan polysulfo ester
complement inhibiting activity (reported) (complement [4]): reported as having complement inhibiting activity
